From patent KR20140065554A, “안토시아닌을 포함하는 항염용 조성물” (대한민국(농촌진흥청장), priority 2012, dated 2014)

Legend:
Format in all cases: cell-based
[1] = tested on: LPS-induced NO production in RAW 264.7 (RAW 264.7에서 LPS로 유도된 NO 생성); assay: Inhibition of LPS-induced NO production in RAW 264.7; conditions: p<0.05
[2] = tested on: LPS-induced NO production (LPS로 유도되는 NO의 생성); assay: Anti-inflammatory effect assay of peak 2 anthocyanin: inhibition of LPS-induced NO production; conditions: p<0.05
[3] = tested on: HepG2; assay: Protective effect against hydrogen peroxide (H2O2, 0.9 mM)-induced oxidative stress in HepG2; conditions: HepG2, H2O2 0.9mM, p<0.05

Row | Compound | inhibition of LPS-induced NO production [1] | inhibition at 1 µM ([2]; 1uM) [%] | inhibition at 10 µM ([2]; 10uM) [%] | cell protective effect against H2O2-induced oxidative stress [3]
1 | COc1cc(-c2[o+]c3cc(O)cc(O[C@@H]4O[C@H](CO)[C@@H](O)[C@H](O)[C@H]4O)c3cc2O[C@@H]2O[C@H](CO)[C@@H](O)[C@H](O)[C@H]2O[C@@H]2O[C@H](CO)[C@@H](O)[C@H](O)[C@H]2O)ccc1O (single isomer, unassigned) [Peak 2, Peonidin-3-sophoroside-5-glucoside] | 유의적으로 저해하였다 | 8 | 15 | –
2 | COc1cc(-c2[o+]c3cc(O)cc(O[C@@H]4O[C@H](CO)[C@@H](O)[C@H](O)[C@H]4O)c3cc2O[C@@H]2O[C@H](COC(=O)/C=C/c3ccc(O)c(O)c3)[C@@H](O)[C@H](O)[C@H]2O[C@@H]2O[C@H](COC(=O)/C=C/c3ccc(O)c(O)c3)[C@@H](O)[C@H](O)[C@H]2O)ccc1O (single isomer, unassigned) [Peak 12, Peonidin 3-(6", 6"'-dicaffeoyl sophoroside)-5-glucoside] | – | – | – | 유의적인 세포 보호 효과를 보였다
3 | Peonidin 3-p-hydroxybenzoyl sophoroside-5-glucoside [Peak 4] | 유의적으로 저해하였다 | – | – | –
